Measurements as given in patent publication USRE48461E1, “Modulation of androgen receptor expression” (Ionis Pharmaceuticals, Inc., priority 2012, dated 2021).

How the values were obtained:
[1] = test system: AR mRNA; assay: AR mRNA levels in LMR20 cells (with/without DHT or R1881); type: cell-based, human; conditions: with or without DHT/R1881
Description: LMR20 cells were plated at 1,500 cells per well in phenol red-free medium with CSS.

[2] = test system: LNCaP cells; assay: LNCaP cell proliferation, ASO in combination with MDV3100 (Example 20); type: cell-based, human; conditions: for Proliferation (% untreated control) in LNCaP without MDV-3100: 5 days
Description: LNCaP cells were plated at 1,000 cells per well. […] ISIS 549148 was included as a negative control. […] After a treatment period of 5 days, the proliferative capacity of the cancer cells was measured with CellTiter 96® AQueous One or CellTiter-Glo® Solution Cell Proliferation kit (Promega), following the manufacturer's instructions. […]

[3] = test system: 22RV1 cells; assay: 22RV1 cell proliferation with/without DHT (MTT); type: cell-based, human; conditions: 5 days; for Percent inhibition of 22RV1 cell proliferation: RNAiMAX
Description: 22RV1cells were plated at 1,500 cells per well. […] Separate sets of cells, also treated with each of the antisense oligonucleotides, were treated with DHT added on day 1 at a final concentration of 1 nM. After a treatment period of 5 days, the proliferative ability of the cancer cells was measured using the standard MTT assay. Results are presented in Table 69 as percent inhibition of proliferation, relative to non-treated cells.

[4] = test system: PSA mRNA; assay: PSA expression in LNCaP cells (complete, CSS+DHT medium); type: cell-based, human; conditions: for Percent inhibition of PSA expression in LNCaP cells cultured in CSS + DHT medium: CSS + DHT (1 nM) medium, 48 hrs; for Percent inhibition of PSA expression in LNCaP cells cultured in complete medium: 48 hours
Description: Cells were plated at 1,000 cells per well. […] ISIS 549148 was included as a negative control. […] After an incubation period of 48 hours, RNA levels of AR, PSA and TMPRSS2 were measured.
Cells were plated at 2,000 cells per well and cultured in phenol red-free RPMI supplemented with 5% charcoal stripped serum (Gibco) media for 16 hours. […] ISIS 549148 was included as a negative control. […] After an incubation period of 4 hrs, DHT was added to the medium to a final concentration of 1 nM as indicated. RNAs were collected 48 hrs later and levels of AR, PSA and TMPRSS2 were measured. In the absence of DHT, AR expression in LNCaP cells was 95%, PSA expression was 7% and TMPRSS2 expression was 24% compared to the untreated control.

[5] = test system: TMPRSS2 mRNA; assay: TMPRSS2 expression in C4-2B cells (Example 30); type: cell-based, human; conditions: 48 hrs
Description: Cells were plated at 1,000 cells per well. […] ISIS 549148 was included as a negative control. […] After an incubation period of 48 hrs, RNA levels of AR, PSA and TMPRSS2 were measured.
Cells were plated at 2,000 cells per well and cultured in CSS media with 1 nM DHT. […] ISIS 549148 was included as a negative control. […] After an incubation period of 48 hrs, RNA levels of AR, PSA and TMPRSS2 were measured. In the absence of DHT, AR expression in C4-2 cells was 188%, PSA expression was 43% and TMPRSS2 expression was 27% compared to the untreated control.

[6] = test system: MDA-MB-453 tumor; assay: Tumor volume in MDA-MB-453 breast cancer orthotopic model; type: in vivo, NSG mice; conditions: Study 2, MDA-MB-453 model, NSG mice, 50 mg/kg s.c. 5 days per week for 2 weeks

In the case of “TGATTTAATGGTTGCA [ISIS 569236] (cEt/MOE gapmer chemistry, further chemistry not given here) [targets intron 1]”, the “AR mRNA levels in LMR20 cells” value [1] is reported as “reduced AR mRNA levels in LMR20 cells, treated with or without either AR agonist, in a dose dependent manner relative to the baseline”, the “Proliferation (% untreated control) in LNCaP with 0.08 μM MDV-3100” value ([2]; ASO dose 0.04 μM + 0.08 μM MDV-3100) is reported as 74 % untreated control and the “Proliferation (% untreated control) in LNCaP with 0.4 μM MDV-3100” value ([2]; ASO dose 0.04 μM + 0.4 μM MDV-3100) is reported as 48 % untreated control. The “Proliferation (% untreated control) in LNCaP with 2.0 μM MDV-3100” value ([2]; ASO dose 0.04 μM + 2.0 μM MDV-3100) was 41 % untreated control, the “Proliferation (% untreated control) in LNCaP with […] MDV-3100” value ([2]; ASO dose 0.04 μM + […] MDV-3100) was 92 % untreated control and the “Proliferation (% untreated control) in LNCaP without MDV-3100” value ([2]; ASO dose 0.04 μM) was 91 % untreated control. The “Proliferation (% untreated control) in LNCaP with 0.08 μM MDV-3100” value ([2]; ASO dose 0.08 μM + 0.08 μM MDV-3100) was 98 % untreated control, the “Proliferation (% untreated control) in LNCaP with 0.4 μM MDV-3100” value ([2]; ASO dose 0.08 μM + 0.4 μM MDV-3100) was 61 % untreated control and the “Proliferation (% untreated control) in LNCaP with 2.0 μM MDV-3100” value ([2]; ASO dose 0.08 μM + 2.0 μM MDV-3100) was 44 % untreated control. The “Proliferation (% untreated control) in LNCaP with […] MDV-3100” value ([2]; ASO dose 0.08 μM + […] MDV-3100) was 104 % untreated control, the “Proliferation (% untreated control) in LNCaP without MDV-3100” value ([2]; ASO dose 0.08 μM) was 106 % untreated control and the “Proliferation (% untreated control) in LNCaP with 0.08 μM MDV-3100” value ([2]; ASO dose 0.2 μM + 0.08 μM MDV-3100) was 51 % untreated control. For the same sequence, the “Proliferation (% untreated control) in LNCaP with 0.4 μM MDV-3100” value ([2]; ASO dose 0.2 μM + 0.4 μM MDV-3100) was 41 % untreated control, the “Proliferation (% untreated control) in LNCaP with 2.0 μM MDV-3100” value ([2]; ASO dose 0.2 μM + 2.0 μM MDV-3100) was 35 % untreated control and the “Proliferation (% untreated control) in LNCaP with […] MDV-3100” value ([2]; ASO dose 0.2 μM + […] MDV-3100) was 58 % untreated control. For the same sequence, the “Proliferation (% untreated control) in LNCaP without MDV-3100” value ([2]; ASO dose 0.2 μM) was 60 % untreated control, the “Proliferation (% untreated control) in LNCaP with 0.08 μM MDV-3100” value ([2]; ASO dose 1.0 μM + 0.08 μM MDV-3100) was 31 % untreated control and the “Proliferation (% untreated control) in LNCaP with 0.4 μM MDV-3100” value ([2]; ASO dose 1.0 μM + 0.4 μM MDV-3100) was 27 % untreated control. For the same sequence, the “Proliferation (% untreated control) in LNCaP with 2.0 μM MDV-3100” value ([2]; ASO dose 1.0 μM + 2.0 μM MDV-3100) was 23 % untreated control, the “Proliferation (% untreated control) in LNCaP with […] MDV-3100” value ([2]; ASO dose 1.0 μM + […] MDV-3100) was 29 % untreated control and the “Proliferation (% untreated control) in LNCaP without MDV-3100” value ([2]; ASO dose 1.0 μM) was 35 % untreated control. The “synergy with MDV3100” value ([2]; LNCaP cells) was “synergistic with MDV3100”, the “cell proliferation inhibited, combination” value ([2]; LNCaP cells, 0.04 μM ASO in combination with 0.08 μM MDV3100) was 26% and the “inhibited cell proliferation, ASO alone” value ([2]; LNCaP cells, ASO alone at 0.04 μM) was 9%. The “Percent inhibition of 22RV1 cell proliferation” value ([3]; +DHT (1 nM), ASO 1.34 nM) was 0%, the “Percent inhibition of 22RV1 cell proliferation” value ([3]; +DHT (1 nM), ASO 4.0 nM) was 6% and the “Percent inhibition of 22RV1 cell proliferation” value ([3]; +DHT (1 nM), ASO 13.4 nM) was 32%. For the same sequence, the “Percent inhibition of 22RV1 cell proliferation” value ([3]; +DHT (1 nM), ASO 40.0 nM) was 56%, the 22RV1 cell proliferation ([3]; with or without 1 nM DHT) was “significantly inhibited prostate cancer cell proliferation even in the presence of AR activator, DHT, compared to the control” and the “Percent inhibition of 22RV1 cell proliferation” value ([3]; −DHT, ASO 1.34 nM) was 0%. The “Percent inhibition of 22RV1 cell proliferation” value ([3]; −DHT, ASO 4.0 nM) was 18%, the “Percent inhibition of 22RV1 cell proliferation” value ([3]; −DHT, ASO 13.4 nM) was 47% and the “Percent inhibition of 22RV1 cell proliferation” value ([3]; −DHT, ASO 40.0 nM) was 64%. For the same sequence, the “Percent inhibition of PSA expression in LNCaP cells cultured in CSS + DHT medium” value (shortened to “Percent inhibition … in CSS + DHT medium”) ([4]; 0.04 μM) was 4%, the “Percent inhibition … in CSS + DHT medium” value ([4]; 0.2 μM) was 11% and the “Percent inhibition … in CSS + DHT medium” value ([4]; 1 μM) was 45%. For the same sequence, the “Percent inhibition … in CSS + DHT medium” value ([4]; 5.0 μM) was 59%, the “Percent inhibition of PSA expression in LNCaP cells cultured in complete medium” value (“Percent inhibition … in complete medium” for short) ([4]; 0.04 μM) was 0% and the “Percent inhibition … in complete medium” value ([4]; 0.2 μM) was 19%. The “Percent inhibition … in complete medium” value ([4]; 1 μM) was 63%, the “Percent inhibition … in complete medium” value ([4]; 5.0 μM) was 81% and the “Percent inhibition of TMPRSS2 expression” value ([5]; CSS + DHT medium, 0.04 μM) was 0%. For the same sequence, the “Percent inhibition of TMPRSS2 expression” value ([5]; CSS + DHT medium, 0.2 μM) was 6%, the “Percent inhibition of TMPRSS2 expression” value ([5]; CSS + DHT medium, 1 μM) was 43% and the “Percent inhibition of TMPRSS2 expression” value ([5]; CSS + DHT medium, 5.0 μM) was 59%. For the same sequence, the “Percent inhibition of TMPRSS2 expression” value ([5]; complete medium, 0.04 μM) was 33%, the “Percent inhibition of TMPRSS2 expression” value ([5]; complete medium, 0.2 μM) was 59% and the “Percent inhibition of TMPRSS2 expression” value ([5]; complete medium, 1 μM) was 69%. For the same sequence, the “Percent inhibition of TMPRSS2 expression” value ([5]; complete medium, 5.0 μM) was 73%, the Tumor volumes ([6]; Day 0) was 134 and the Tumor volumes ([6]; Day 8) was 283. The Tumor volumes ([6]; Day 13) was 260, the Tumor volumes ([6]; Day 20) was 230 and the Tumor volumes ([6]; Day 23) was 264. It also gave a Tumor volumes ([6]; Day 27) of 329 and a Tumor volumes ([6]; Day 29) of 323.
